Here are results for twelve molecules from patent US8022061B2, “N-aryl pyrazole compounds, compositions, and methods for their use” (Amgen Inc., priority 2006, dated 2011).

The test has as its system C57B6 mice. Put plainly: Glucose lowering effect after oral glucose challenge in C57B6 mice. It is filed as in vivo. Particulars: male C57B6 mice, p.o. 30 minutes before oral glucose 3 g/kg; blood glucose before, 20 and 50 minutes after challenge; relative to control group. On the procedure:
The following example describes the glucose lowering effect of compounds observed in vivo.
Male C57B6 mice were placed into control and treatment groups having similar averages of body weights. Then, animals were dosed with vehicle (control group) or test article (5 ml/kg, p.o.). Thirty minutes after dosing, glucose (3 g/kg) was orally administered in each animal. Blood samples were collected just before, 20 minutes and 50 minutes after glucose challenge and glucose concentrations in the samples was assessed. The values in Table 2 represent the observed % AUC reduction of blood glucose in the treated animals relative to the control group.
Regarding `CCOCc1c(C(=O)NCc2c(CO)ncn2C)cnn1-c1ncc(C)c(N2CCc3ccccc3C2)n1` [1-[4-(3,4-Dihydroisoquinolin-2(1H)-yl)-5-methylpyrimidin-2-yl]-5-(ethoxymethyl)-N-{[4-(hydroxymethyl)-1-methyl-1H-imidazol-5-yl]methyl}-1H-pyrazole-4-carboxamide], the “% AUC reduction in glucose levels” value is given as 63%.

On to `COCc1c(C(=O)NCc2c(CO)ncn2C)cnn1-c1ncc(C)c(-c2ccoc2)n1` [1-[4-(3-Furyl)-5-methylpyrimidin-2-yl]-N-[{4-(hydroxymethyl)-1-methyl-1H-imidazol-5-yl]methyl}-5-(methoxymethyl)-1H-pyrazole-4-carboxamide], for which the “% AUC reduction in glucose levels” value is 29%.

Regarding `CCCc1c(C(=O)NCc2c(CO)ncn2C)cnn1-c1ncc(C)c(-c2ccoc2)n1` [1-[4-(3-Furyl)-5-methylpyrimidin-2-yl]-N-{[4-(hydroxymethyl)-1-methyl-1H-imidazol-5-yl]methyl}-5-propyl-1H-pyrazole-4-carboxamide], the “% AUC reduction in glucose levels” value came out at 19%.

`CCOCc1c(C(=O)NCc2cncn2C)cnn1-c1ncc(C)c(NC2CCCCC2)n1` [1-[4-(Cyclohexylamino)-5-methylpyrimidin-2-yl]-5-(ethoxymethyl)-N-[(1-methyl-1H-imidazol-5-yl)methyl]-1H-pyrazole-4-carboxamide]: the “% AUC reduction in glucose levels” value is 42%.

Turning to `CCOCc1c(C(=O)NCc2c(CO)ncn2C)cnn1-c1ncc(Cl)c(-c2cccs2)n1` [1-[5-Chloro-4-(2-thienyl)pyrimidin-2-yl]-5-(ethoxymethyl)-N-{[4-(hydroxymethyl)-1-methyl-1H-imidazol-5-yl]methyl}-1H-pyrazole-4-carboxamide], the “% AUC reduction in glucose levels” value is 41%.

As for `CCCCc1c(C(=O)NCc2c(C)ncn2C(C)(C)C(=O)O)cnn1-c1ncc(C)c(-c2cccs2)n1` [2-(5-{[({5-Butyl-1-[5-methyl-4-(2-thienyl)pyrimidin-2-yl]-1H-pyrazol-4-yl}carbonyl)amino]methyl}-4-methyl-1H-imidazol-1-yl)-2-methylpropanoic acid], the “% AUC reduction in glucose levels” value is reported as 15%.

Take `COCCc1c(C(=O)NCc2cncn2C)cnn1-c1ncc(C)c(-c2cccs2)n1` [5-(2-Methoxyethyl)-N-[(1-methyl-1H-imidazol-5-yl)methyl]-1-[5-methyl-4-(2-thienyl)pyrimidin-2-yl]-1H-pyrazole-4-carboxamide]: the “% AUC reduction in glucose levels” value is on record as 25%.

With `CCOCc1c(C(=O)NCc2cncn2C)cnn1-c1ncc(C)c(-c2ccco2)n1` [5-(Ethoxymethyl)-1-[4-(2-furyl)-5-methylpyrimidin-2-yl]-N-[(1-methyl-1H-imidazol-5-yl)methyl]-1H-pyrazole-4-carboxamide], the “% AUC reduction in glucose levels” value is on record as 51%.

Take `CCOCc1c(C(=O)NCc2cncn2C)cnn1-c1ncc(C)c(N2CCCCC2)n1` [5-(Ethoxymethyl)-N-((1-methyl-1H-imidazol-5-yl)methyl)-1-(5-methyl-4-(piperidin-1-yl)pyrimidin-2-yl)-1H-pyrazole-4-carboxamide]: the “% AUC reduction in glucose levels” value was found to be 42%.

Regarding `CCOCc1c(C(=O)NCc2cncn2C)cnn1-c1ncc(C)c(-c2cccs2)n1` [5-(Ethoxymethyl)-N-((1-methyl-1H-imidazol-5-yl)methyl)-1-(5-methyl-4-(thiophen-2-yl)pyrimidin-2-yl)-1H-pyrazole-4-carboxamide], the “% AUC reduction in glucose levels” value is recorded as 16%.

Turning to `CCOCc1c(C(=O)NCc2cncn2C)cnn1-c1ncc(C)c(-c2ccccc2)n1` [5-(Ethoxymethyl)-N-[(1-methyl-1H-imidazol-5-yl)methyl]-1-(5-methyl-4-phenylpyrimidin-2-yl)-1H-pyrazole-4-carboxamide], the “% AUC reduction in glucose levels” value is reported as 35%.

As for `CCOCc1c(C(=O)NCc2cncn2C)cnn1-c1ncc(C)c(N2CCCC2)n1` [5-(Ethoxymethyl)-N-[(1-methyl-1H-imidazol-5-yl)methyl]-1-(5-methyl-4-pyrrolidin-1-ylpyrimidin-2-yl)-1H-pyrazole-4-carboxamide], the “% AUC reduction in glucose levels” value was 18%.
